Results reported in patent US20130171178A1, “Immunogenic Peptides of Xage-1” (THE GOVERNMENT OF THE UNITED STATES AS REPRESENTED BY THE …, priority 2003, published 2013).
pEC50: −log10 of the molar value. Like-named read-outs stand apart in the source and are kept apart here. Where a SMILES comes first, the peptide text is derived from it.

How the values were obtained:
[1] = target: T1, HLA-A2 (Homo sapiens, UniProt P04439, D140Y/D185E/D98H/E176V/E277Q/G131W/G231S/I119V/I121R/I166T/I218V/L300P/L318F/N151K/N90K/P208A/P217A/Q86G/Q94H/R138H/R169H/T345S); assay: T2 binding assay (HLA-A2 expression on T2 cells by flow cytometry)
T1 construct: host or cells: T2 cells (human T-B lymphoblast hybrid, TAP1/TAP2 deficient)

[2] = system: C1R.AAD cells pulsed or unpulsed with peptide; assay: CTL 51Cr-release assay, spleen cells of peptide-immunized HLA-A2 transgenic mice against peptide-pulsed or unpulsed targets; assay type: in vivo; settings: spleen cells from immunized HLA-A2-transgenic mice
Text: (§1) FIG. 3. CTLs induced with peptide of the invention can lyse human cancer cell expressing XAGE-1. Spleen cells derived from HLA-A2 transgenic mice immunized with a peptide of the invention (SEQ ID NO:6), as the effector cells, were stimulated in vitro for two weeks and used for a CTL assay. C1R.AAD cells pulsed or unpulsed with a peptide of SEQ ID NO:6 and a human osteosarcoma cell line expressing XAGE-1 (SB, described in Liu et al, Can Research 60:4752-4755 (2000)) were used as target cells. “E:T Ratio” stands for “Effector:Target ratio,” as indicated on the axis.
(§2) Xage-1 14 peptide (50 nmol) was emulsified in incomplete Freund's adjuvant with 50 nmol of a helper epitope derived from HCV core128-140, 5 μg of IL-12, and 5 μg of GM-CSF. Transgenic A2 Kb mice were immunized s.c. with the emulsified peptide and given a booster shot at 2 weeks. […] A week after the second stimulation, cells were harvested and measured for cytotoxic activity. The cytotoxic activity was measured by 4-hr ^51Cr-release assay. The percentage of specific ^51Cr release was determined as follows: (experimental release−spontaneous release)/(maximum release−spontaneous release)×100. Maximum release was determined from supernatants of cells that were lysed by addition of 5% Triton X-100. Spontaneous release was determined from target cells incubated without added effector cells. […]

[3] = system: HLA-A2 positive human Ewing's sarcoma cell line which expresses XAGE-1 mRNA; assay: CTL lysis of human XAGE-1-expressing cancer cells by CTLs of immunized HLA-A2 transgenic mice; assay type: in vivo
Text: as §1, §2

[4] = T2 binding assay, enhanced xage-1 14 peptides, read-out: Binding Affinity to HLA-A2 (FI50)
[5] = T2 cells, overnight incubation with peptide and β2-microglobulin, read-out: binding affinity to HLA-A2 (F.I.50)

CC(C)C[C@H](NC(=O)[C@@H](N)Cc1ccc(O)cc1)C(=O)N[C@@H](Cc1ccccc1)C(=O)N1CCC[C@H]1C(=O)N[C@@H](CO)C(=O)N[C@@H](C)C(=O)N1CCC[C@H]1C(=O)N[C@@H](CO)C(=O)N1CCC[C@H]1C(=O)N[C@H](C(=O)O)C(C)C [1Y2L xage-1 14, YLFPSAPSPV] (H-YLFPSAPSPV-OH; N-terminus and C-terminus assumed)
pEC50 [1, 4]: 5.52

CC(C)[C@H](NC(=O)[C@@H]1CCCN1C(=O)[C@H](CO)NC(=O)[C@@H]1CCCN1C(=O)[C@H](C)NC(=O)[C@H](CO)NC(=O)[C@@H]1CCCN1C(=O)[C@H](Cc1ccccc1)NC(=O)[C@@H](NC(=O)[C@@H](N)Cc1ccc(O)cc1)C(C)C)C(=O)O [1Y xage-1 14, YVFPSAPSPV] (H-YVFPSAPSPV-OH; N-terminus and C-terminus assumed)
pEC50 [1, 4]: 5.63

CSCC[C@H](NC(=O)[C@H](CC(C)C)NC(=O)CN)C(=O)N1CCC[C@H]1C(=O)N[C@@H](CO)C(=O)N[C@@H](C)C(=O)N1CCC[C@H]1C(=O)N[C@@H](CO)C(=O)N1CCC[C@H]1C(=O)N[C@H](C(=O)O)C(C)C [2L3M xage-1 14, GLMPSAPSPV] (H-GLMPSAPSPV-OH; N-terminus and C-terminus assumed)
binding to HLA-A2 (in words) ([1]; T2 binding assay): particularly high binding affinity to HLA-A2
pEC50 [1, 4]: 6.21

CC(C)C[C@H](NC(=O)CN)C(=O)N[C@@H](Cc1ccccc1)C(=O)N1CCC[C@H]1C(=O)N[C@@H](CO)C(=O)N[C@@H](C)C(=O)N1CCC[C@H]1C(=O)N[C@@H](CO)C(=O)N1CCC[C@H]1C(=O)N[C@H](C(=O)O)C(C)C [2L xage-1 14, GLFPSAPSPV] (H-GLFPSAPSPV-OH; N-terminus and C-terminus assumed)
pEC50 [1, 4]: 5.73

CSCC[C@H](NC(=O)[C@@H](NC(=O)CN)C(C)C)C(=O)N1CCC[C@H]1C(=O)N[C@@H](CO)C(=O)N[C@@H](C)C(=O)N1CCC[C@H]1C(=O)N[C@@H](CO)C(=O)N1CCC[C@H]1C(=O)N[C@H](C(=O)O)C(C)C [3M xage-1 14, GVMPSAPSPV] (H-GVMPSAPSPV-OH; N-terminus and C-terminus assumed)
binding to HLA-A2 (in words) ([1]; T2 binding assay): particularly high binding affinity to HLA-A2
pEC50 [1, 4]: 6.55

CC(C)[C@H](NC(=O)[C@@H]1CCCN1C(=O)[C@H](CO)NC(=O)[C@@H]1CCCN1C(=O)[C@H](C)NC(=O)[C@H](CO)NC(=O)[C@@H]1CCCN1C(=O)[C@H](Cc1ccccc1)NC(=O)[C@@H](NC(=O)CN)C(C)C)C(=O)O [xage-1 14, GVFPSAPSPV] (H-GVFPSAPSPV-OH; N-terminus and C-terminus assumed)
binding to HLA-A2 (in words) ([1]; T2 binding assay): surprisingly stronger binding to HLA-A2 compared to other candidate peptides
pEC50 [1, 5]: 6.10 to 6.15
specific lytic activity against peptide-pulsed targets ([2]; stimulated twice in vitro, targets pulsed with xage-1 14): lysed target cells pulsed with peptide
lytic activity against target cells not pulsed with peptide ([2]; unpulsed targets): did not lyse target cells not pulsed with peptide
killing of human XAGE-1-expressing cancer cells by CTLs (FIG. 3) ([3]; CTLs from HLA-A2 transgenic mice immunized with peptide, varying E:T ratio): killed human RAGE-1-expressing cancer cells in a dose dependent manner
lysis of human Ewing's sarcoma cells by CTLs ([3]; CTLs from mice immunized twice with peptide, restimulated in vitro): lysed the human Ewing's sarcoma cells

CC[C@H](C)[C@H](NC(=O)[C@H](Cc1c[nH]c2ccccc12)NC(=O)[C@@H](NC(=O)[C@H](CCC(=O)O)NC(=O)[C@@H]1CCCN1C(=O)[C@@H](NC(=O)[C@H](CCCNC(=N)N)NC(=O)[C@@H](NC(=O)[C@H](C)N)[C@@H](C)O)C(C)C)C(C)C)C(=O)N[C@@H](CC(C)C)C(=O)O [xage-1 33, ATRVPEVWIL, reference compound] (H-ATRVPEVWIL-OH)
pEC50 [1, 5]: < 4.30

CSCC[C@H](NC(=O)[C@@H](NC(=O)[C@@H]1CCCN1C(=O)[C@H](CO)NC(=O)[C@H](CCCNC(=N)N)NC(=O)[C@@H]1CCCN1C(=O)[C@H](CO)NC(=O)[C@H](C)NC(=O)[C@@H](NC(=O)[C@@H](N)Cc1c[nH]cn1)[C@@H](C)O)C(C)C)C(=O)O [xage-1 57, HTASPRSPVM, reference compound] (H-HTASPRSPVM-OH)
pEC50 [1, 5]: < 4.30
